Data taken from patent publication US9695155B2, “Herbicidal substituted pyrimidinyloxy benzene compounds” (E. I. DU PONT DE NEMOURS AND COMPANY, priority 2013, dated 2017).

Tests used:
giant foxtail = test: Test C postemergence; type: in vivo, Setaria faberii; conditions: Setaria faberi, post-emergence
How it was run: (§1)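 Plants were kept under greenhouse conditions for 13–15 days following spray. Pre-emergent application went to soil (loam–sand), post-emergent to foliage at 1–4 leaves. Evaluation: visual, percent control against untreated checks.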

large (Lg) crabgrass = test: Test C postemergence; type: in vivo, Digitaria sanguinalis; conditions: Digitaria sanguinalis, post-emergence
How it was run: as §1

Italian ryegrass [1] = test: Test C preemergence; type: in vivo, Lolium multiflorum; conditions: Lolium multiflorum, pre-emergence, preemergence, read-out: Ryegrass, Italian plant response rating
How it was run: as §1

ragweed [2] = test: Test A preemergence; type: in vivo, Ambrosia elatior; conditions: 0 to 100 scale where 0 is no effect and 100 is complete control
How it was run: (§2)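 Injury scores run from 0, no effect, to 100, complete control, judged by eye against untreated plants roughly 10 days after treatment. Chemicals carried a surfactant in a non-phytotoxic solvent and went onto loam–sand soil preemergence or onto one- to two-leaf seedlings postemergence.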

wheat, winter [3] = test: Test C postemergence; type: in vivo, Triticum aestivum
How it was run: as §1

ragweed [4] = test: Test A postemergence; type: in vivo, Ambrosia elatior; conditions: 0 to 100 scale where 0 is no effect and 100 is complete control
How it was run: as §2

Italian ryegrass [5] = test: Test A preemergence; type: in vivo, Lolium multiflorum; conditions: 0 to 100 scale where 0 is no effect and 100 is complete control
How it was run: as §2

wheat, winter [6] = test: Test C preemergence; type: in vivo, Triticum aestivum; conditions: Triticum aestivum, pre-emergence, preemergence, read-out: Wheat plant response rating
How it was run: as §1

johnsongrass [7] = test: Test C postemergence; type: in vivo, Sorghum halepense
How it was run: as §1

johnsongrass [8] = test: Test C preemergence; type: in vivo, Sorghum halepense; conditions: Sorghum halepense, pre-emergence, preemergence, read-out: Johnsongrass plant response rating
How it was run: as §1

corn [9] = test: Test C preemergence; type: in vivo, Zea mays; conditions: Zea mays, pre-emergence
How it was run: as §1

barnyardgrass = test: Test A postemergence; type: in vivo, Echinochloa crus-galli; conditions: Echinochloa crus-galli, post-emergence, 240 h, 0 to 100 scale where 0 is no effect and 100 is complete control
How it was run: as §2

corn [10] = test: Test A postemergence; type: in vivo, Zea mays; conditions: Zea mays, post-emergence, 240 h, 0 to 100 scale where 0 is no effect and 100 is complete control
How it was run: as §2

yellow nutsedge [11] = test: Test C postemergence; type: in vivo, Cyperus esculentus
How it was run: as §1

corn [12] = test: Test C postemergence; type: in vivo, Zea mays; conditions: Zea mays, post-emergence
How it was run: as §1

yellow nutsedge [13] = test: Test C preemergence; type: in vivo, Cyperus esculentus; conditions: Cyperus, pre-emergence, preemergence, read-out: Nutsedge, Yellow plant response rating
How it was run: as §1

[14] = 16 g ai/ha, scale 0 to 100 (0 no effect, 100 complete control)
[15] = 62 g ai/ha, scale 0 (no effect) to 100 (complete control)
[16] = 125 g ai/ha, scale 0 (no effect) to 100 (complete control)
[17] = 31 g ai/ha, postemergence, visual rating, scale 0 to 100 (0 no effect, 100 complete control), 13 to 15 days

FC(F)c1cn(-c2ccccc2Oc2ncc(Cl)cn2)nn1 [Compound 147, 5-chloro-2-[2-[4-(difluoromethyl)-1H-1,2,3-triazol-1-yl]phenoxy]pyrimidine]
pest or weed control at 16 g/ha (giant foxtail; 16 g ai/ha, postemergence, 0 is no effect, 100 is complete control, read-out: Plant response rating (0 to 100), Foxtail, Giant): 0% | pest or weed control at 31 g/ha (giant foxtail; 31 g ai/ha, postemergence, visual rating, scale 0 to 100 (0 no effect, 100 complete control), 13 to 15 days, read-out: Foxtail, Giant plant response rating): 0% | pest or weed control at 125 g/ha (giant foxtail; 125 g ai/ha, postemergence, visual rating, scale 0 to 100 (0 no effect, 100 complete control), read-out: Plant response rating, Foxtail, Giant): 50% | pest or weed control at 62 g/ha (giant foxtail; Postemergence, 62 g ai/ha, scale 0 to 100 (0 no effect, 100 complete control), read-out: Plant response rating, Foxtail, Giant): 20% | pest or weed control at 16 g/ha (large (Lg) crabgrass; 16 g ai/ha, postemergence, 0 is no effect, 100 is complete control, read-out: Plant response rating (0 to 100), Crabgrass, Large): 5% | pest or weed control at 31 g/ha (large (Lg) crabgrass; 31 g ai/ha, postemergence, visual rating, scale 0 to 100 (0 no effect, 100 complete control), 13 to 15 days, read-out: Crabgrass, Large plant response rating): 5% | pest or weed control at 125 g/ha (large (Lg) crabgrass; 125 g ai/ha, postemergence, visual rating, scale 0 to 100 (0 no effect, 100 complete control), read-out: Plant response rating, Crabgrass, Large): 10% | pest or weed control at 62 g/ha (large (Lg) crabgrass; Postemergence, 62 g ai/ha, scale 0 to 100 (0 no effect, 100 complete control), read-out: Plant response rating, Crabgrass, Large): 10% | pest or weed control at 16 g/ha (Italian ryegrass [1]; [14]): 0% | pest or weed control at 62 g/ha (Italian ryegrass [1]; [15]): 50% | pest or weed control at 125 g/ha (Italian ryegrass [1]; [16]): 70% | Plant response rating, Ragweed (ragweed [2]; 125 g ai/ha): 90 | Ragweed plant response rating (ragweed [2]; 500 g ai/ha): 100 | Wheat plant response rating (wheat, winter [3]; [17]): 5 | plant injury at 16 g/ha (wheat, winter [3]; Triticum aestivum, post-emergence, 16 g ai/ha, postemergence, 0 is no effect, 100 is complete control, read-out: Plant response rating (0 to 100), Wheat): 0% | plant injury at 125 g/ha (wheat, winter [3]; Triticum aestivum, post-emergence, 125 g ai/ha, postemergence, visual rating, scale 0 to 100 (0 no effect, 100 complete control), read-out: Plant response rating, Wheat): 15% | plant injury at 62 g/ha (wheat, winter [3]; Triticum aestivum, post-emergence, Postemergence, 62 g ai/ha, scale 0 to 100 (0 no effect, 100 complete control), read-out: Plant response rating, Wheat): 10% | Ragweed plant response rating (ragweed [4]; 125 g ai/ha): 100 | Plant response rating, Ragweed (ragweed [4]; 500 g ai/ha): 100 | Plant response rating, Ryegrass, Italian (Italian ryegrass [5]; 125 g ai/ha): 10 | Ryegrass, Italian plant response rating (Italian ryegrass [5]; 500 g ai/ha): 100 | plant injury at 16 g/ha (wheat, winter [6]; [14]): 0% | plant injury at 62 g/ha (wheat, winter [6]; [15]): 0% | plant injury at 125 g/ha (wheat, winter [6]; [16]): 25% | Johnsongrass plant response rating (johnsongrass [7]; [17]): 5 | pest or weed control at 16 g/ha (johnsongrass [7]; Sorghum halepense, post-emergence, 16 g ai/ha, postemergence, 0 is no effect, 100 is complete control, read-out: Plant response rating (0 to 100), Johnsongrass): 5% | pest or weed control at 125 g/ha (johnsongrass [7]; Sorghum halepense, post-emergence, 125 g ai/ha, postemergence, visual rating, scale 0 to 100 (0 no effect, 100 complete control), read-out: Plant response rating, Johnsongrass): 10% | pest or weed control at 62 g/ha (johnsongrass [7]; Sorghum halepense, post-emergence, Postemergence, 62 g ai/ha, scale 0 to 100 (0 no effect, 100 complete control), read-out: Plant response rating, Johnsongrass): 5% | pest or weed control at 16 g/ha (johnsongrass [8]; [14]): 10% | pest or weed control at 62 g/ha (johnsongrass [8]; [15]): 80% | pest or weed control at 125 g/ha (johnsongrass [8]; [16]): 90% | plant injury at 16 g/ha (corn [9]; 16 g ai/ha, preemergence, scale 0 to 100 (0 no effect, 100 complete control), read-out: Corn plant response rating): 0% | plant injury at 62 g/ha (corn [9]; 62 g ai/ha, preemergence, scale 0 (no effect) to 100 (complete control), read-out: Corn plant response rating): 20% | plant injury at 125 g/ha (corn [9]; 125 g ai/ha, preemergence, scale 0 (no effect) to 100 (complete control), read-out: Corn plant response rating): 35% | Corn plant response rating (crop injury, 0 = no effect, 100 = complete kill) at 31 g/ha (corn [9]; Preemergence, 31 g ai/ha, scale 0 to 100, 0 no effect, 100 complete control): 0% | pest or weed control at 125 g/ha (barnyardgrass; 125 g ai/ha, read-out: Barnyardgrass plant response rating): 90% | pest or weed control at 500 g/ha (barnyardgrass; 500 g ai/ha, read-out: Plant response rating, Barnyardgrass): 90% | plant injury at 125 g/ha (corn [10]; 125 g ai/ha, read-out: Corn plant response rating): 40% | Corn plant response rating (crop injury, 0 = no effect, 100 = complete kill) at 500 g/ha (corn [10]; 500 g ai/ha): 90% | Nutsedge, Yellow plant response rating (yellow nutsedge [11]; [17]): 0 | pest or weed control at 16 g/ha (yellow nutsedge [11]; Cyperus, post-emergence, 16 g ai/ha, postemergence, 0 is no effect, 100 is complete control, read-out: Plant response rating (0 to 100), Nutsedge, Yellow): 0% | pest or weed control at 125 g/ha (yellow nutsedge [11]; Cyperus, post-emergence, 125 g ai/ha, postemergence, visual rating, scale 0 to 100 (0 no effect, 100 complete control), read-out: Plant response rating, Nutsedge, Yellow): 5% | pest or weed control at 62 g/ha (yellow nutsedge [11]; Cyperus, post-emergence, Postemergence, 62 g ai/ha, scale 0 to 100 (0 no effect, 100 complete control), read-out: Plant response rating, Nutsedge, Yellow): 0% | plant injury at 16 g/ha (corn [12]; 16 g ai/ha, postemergence, 0 is no effect, 100 is complete control, read-out: Plant response rating (0 to 100), Corn): 5% | plant injury at 31 g/ha (corn [12]; 31 g ai/ha, postemergence, visual rating, scale 0 to 100 (0 no effect, 100 complete control), 13 to 15 days, read-out: Corn plant response rating): 5% | Corn plant response rating (crop injury, 0 = no effect, 100 = complete kill) at 125 g/ha (corn [12]; 125 g ai/ha, postemergence, visual rating, scale 0 to 100 (0 no effect, 100 complete control)): 10% | Corn plant response rating (crop injury, 0 = no effect, 100 = complete kill) at 62 g/ha (corn [12]; Postemergence, 62 g ai/ha, scale 0 to 100 (0 no effect, 100 complete control)): 5% | pest or weed control at 16 g/ha (yellow nutsedge [13]; [14]): 0% | pest or weed control at 62 g/ha (yellow nutsedge [13]; [15]): 15% | pest or weed control at 125 g/ha (yellow nutsedge [13]; [16]): 55%
